How the values were obtained:
Assay in all cases: scanMAX KINOMEscan (Eurofins)
Type in all cases: binding
SGK3 = SGK3 (Homo sapiens, UniProt Q96BR1); conditions: 1000 nM, read-out: Percent Control
Excerpt: (§1) Supplement cb5c00097_si_002.xlsx, sheet "Table S6 (Eurofins Selectivity)" | column: Percent Control

MYLK2 = MYLK2 (Homo sapiens, UniProt Q9H1R3); conditions: 1000 nM, read-out: Percent Control
Excerpt: as §1

MLK2 = MLK2 (Homo sapiens, UniProt Q02779); conditions: 1000 nM, read-out: Percent Control
Excerpt: as §1

PHKG1 = PHKG1 (Homo sapiens, UniProt Q16816); conditions: 1000 nM, read-out: Percent Control
Excerpt: as §1

p38-beta = p38-beta (Homo sapiens, UniProt Q15759); conditions: 1000 nM, read-out: Percent Control
Excerpt: as §1

PKNB(M.tuberculosis) = PKNB(M.tuberculosis) (Mycobacterium tuberculosis, UniProt P9WI81); conditions: 1000 nM, read-out: Percent Control
Excerpt: as §1

CDKL2 = CDKL2 (Homo sapiens, UniProt Q92772); conditions: read-out: Percent Control
Sequence of CDKL2 (Q92772 whole entry): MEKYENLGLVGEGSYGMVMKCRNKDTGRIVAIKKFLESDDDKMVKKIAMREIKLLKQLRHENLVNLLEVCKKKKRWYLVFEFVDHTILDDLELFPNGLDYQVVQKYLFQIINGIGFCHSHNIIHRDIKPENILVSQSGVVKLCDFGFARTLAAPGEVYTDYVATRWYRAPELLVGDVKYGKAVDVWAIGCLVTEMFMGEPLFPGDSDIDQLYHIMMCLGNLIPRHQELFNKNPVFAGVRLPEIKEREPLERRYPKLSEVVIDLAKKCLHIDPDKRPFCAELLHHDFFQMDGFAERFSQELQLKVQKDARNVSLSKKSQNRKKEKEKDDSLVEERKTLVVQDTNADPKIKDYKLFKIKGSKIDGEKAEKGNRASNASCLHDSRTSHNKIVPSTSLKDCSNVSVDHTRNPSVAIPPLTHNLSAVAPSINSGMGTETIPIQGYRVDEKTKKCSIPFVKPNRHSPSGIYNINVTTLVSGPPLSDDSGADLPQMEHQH
Excerpt: as §1

HASPIN = HASPIN (Homo sapiens, UniProt Q8TF76); conditions: 1000 nM, read-out: Percent Control
Excerpt: as §1

FRK = FRK (Homo sapiens, UniProt P42685); conditions: 1000 nM, read-out: Percent Control
Excerpt: as §1

ACVR1B = ACVR1B (Homo sapiens, UniProt P36896); conditions: 1000 nM, read-out: Percent Control
Excerpt: as §1

MLK1 = MLK1 (Homo sapiens, UniProt P80192); conditions: compound concentration 100 nM; Entrez MAP3K9; read-out: Percent Control
Excerpt: as §1

DRAK2 = DRAK2 (Homo sapiens, UniProt O94768); conditions: 1000 nM, read-out: Percent Control
Excerpt: as §1

SRPK3 = SRPK3 (Homo sapiens, UniProt Q9UPE1); conditions: compound concentration 100 nM; Entrez SRPK3; read-out: Percent Control
Excerpt: as §1

PRKD2 = PRKD2 (Homo sapiens, UniProt Q9BZL6); conditions: 1000 nM, read-out: Percent Control
Excerpt: as §1

STK36 = STK36 (Homo sapiens, UniProt Q9NRP7); conditions: 1000 nM, read-out: Percent Control
Excerpt: as §1

DAPK1 = DAPK1 (Homo sapiens, UniProt P53355); conditions: 1000 nM, read-out: Percent Control
Excerpt: as §1

PAK7 = PAK7 (Homo sapiens, UniProt Q9P286); conditions: 1000 nM, read-out: Percent Control
Excerpt: as §1

PIK3C2G = PIK3C2G (Homo sapiens, UniProt O75747); conditions: 1000 nM, read-out: Percent Control
Excerpt: as §1

TTK = TTK (Homo sapiens, UniProt P33981); conditions: 1000 nM, read-out: Percent Control
Excerpt: as §1

VRK2 = VRK2 (Homo sapiens, UniProt Q86Y07); conditions: compound concentration 100 nM; Entrez VRK2; read-out: Percent Control
Excerpt: as §1

KIT = KIT (Homo sapiens, UniProt P10721); conditions: 1000 nM, read-out: Percent Control
Excerpt: as §1

ITK = ITK (Homo sapiens, UniProt Q08881); conditions: 1000 nM, read-out: Percent Control
Excerpt: as §1

MEK3 = MEK3 (Homo sapiens, UniProt P46734); conditions: 1000 nM, read-out: Percent Control
Sequence of MEK3 (P46734 whole entry): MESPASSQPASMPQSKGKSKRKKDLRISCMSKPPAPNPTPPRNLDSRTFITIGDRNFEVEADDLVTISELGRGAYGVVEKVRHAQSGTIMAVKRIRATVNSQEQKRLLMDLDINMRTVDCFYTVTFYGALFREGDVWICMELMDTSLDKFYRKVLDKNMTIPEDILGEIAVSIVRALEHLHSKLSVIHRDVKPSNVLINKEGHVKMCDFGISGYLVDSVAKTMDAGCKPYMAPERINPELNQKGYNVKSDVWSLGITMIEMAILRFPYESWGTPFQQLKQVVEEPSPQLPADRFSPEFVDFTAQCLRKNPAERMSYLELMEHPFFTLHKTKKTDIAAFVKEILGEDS
Excerpt: as §1

AURKA = AURKA (Homo sapiens, UniProt O14965); conditions: 1000 nM, read-out: Percent Control
Excerpt: as §1

CASK = CASK (Homo sapiens, UniProt O14936); conditions: read-out: Percent Control
Sequence of CASK (O14936 whole entry): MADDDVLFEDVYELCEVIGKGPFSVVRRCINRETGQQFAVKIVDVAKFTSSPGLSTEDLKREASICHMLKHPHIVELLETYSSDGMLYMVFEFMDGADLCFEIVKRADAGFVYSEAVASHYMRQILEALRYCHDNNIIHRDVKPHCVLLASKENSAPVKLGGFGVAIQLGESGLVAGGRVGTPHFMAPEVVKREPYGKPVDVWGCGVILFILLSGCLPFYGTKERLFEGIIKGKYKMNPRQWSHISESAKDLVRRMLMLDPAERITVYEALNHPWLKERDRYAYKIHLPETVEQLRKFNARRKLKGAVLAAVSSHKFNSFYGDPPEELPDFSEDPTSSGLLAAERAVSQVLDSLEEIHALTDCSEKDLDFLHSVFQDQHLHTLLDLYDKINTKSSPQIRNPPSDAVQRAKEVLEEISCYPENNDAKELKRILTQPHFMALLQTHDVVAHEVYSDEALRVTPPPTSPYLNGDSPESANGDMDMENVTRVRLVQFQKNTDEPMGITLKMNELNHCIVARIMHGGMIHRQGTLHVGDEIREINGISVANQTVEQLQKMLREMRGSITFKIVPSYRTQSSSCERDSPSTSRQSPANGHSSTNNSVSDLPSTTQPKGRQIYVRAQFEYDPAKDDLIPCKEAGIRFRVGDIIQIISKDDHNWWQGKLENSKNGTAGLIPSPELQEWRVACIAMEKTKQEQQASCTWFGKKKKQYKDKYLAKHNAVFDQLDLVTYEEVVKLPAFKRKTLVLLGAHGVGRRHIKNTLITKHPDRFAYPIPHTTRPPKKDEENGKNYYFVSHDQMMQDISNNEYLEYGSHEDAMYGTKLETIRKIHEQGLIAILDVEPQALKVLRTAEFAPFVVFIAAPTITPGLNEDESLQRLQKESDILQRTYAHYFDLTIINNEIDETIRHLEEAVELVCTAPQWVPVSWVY
Excerpt: as §1

BMX = BMX (Homo sapiens, UniProt P51813); conditions: read-out: Percent Control
Sequence of BMX (P51813 whole entry): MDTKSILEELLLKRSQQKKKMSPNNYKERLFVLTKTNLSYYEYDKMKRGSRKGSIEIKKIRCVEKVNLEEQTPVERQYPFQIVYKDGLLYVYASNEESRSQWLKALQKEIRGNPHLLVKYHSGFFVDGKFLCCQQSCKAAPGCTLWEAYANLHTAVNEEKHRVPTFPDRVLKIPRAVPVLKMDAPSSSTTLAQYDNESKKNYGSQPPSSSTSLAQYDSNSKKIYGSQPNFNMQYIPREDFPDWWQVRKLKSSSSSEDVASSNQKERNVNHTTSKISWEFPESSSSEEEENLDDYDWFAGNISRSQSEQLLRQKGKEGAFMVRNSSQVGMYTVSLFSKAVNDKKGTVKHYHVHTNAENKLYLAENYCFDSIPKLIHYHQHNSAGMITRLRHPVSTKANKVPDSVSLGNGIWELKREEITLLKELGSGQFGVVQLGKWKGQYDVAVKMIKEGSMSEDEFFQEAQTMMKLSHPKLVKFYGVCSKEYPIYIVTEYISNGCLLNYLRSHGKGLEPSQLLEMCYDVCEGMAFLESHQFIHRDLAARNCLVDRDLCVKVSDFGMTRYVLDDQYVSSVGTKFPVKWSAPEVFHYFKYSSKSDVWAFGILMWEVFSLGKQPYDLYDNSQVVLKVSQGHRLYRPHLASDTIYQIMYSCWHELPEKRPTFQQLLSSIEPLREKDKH
Excerpt: as §1

FLT3(ITD) = conditions: 1000 nM
Excerpt: as §1

PRKD1 = PRKD1 (Homo sapiens, UniProt Q15139); conditions: 1000 nM, read-out: Percent Control
Sequence of PRKD1 (Q15139 whole entry): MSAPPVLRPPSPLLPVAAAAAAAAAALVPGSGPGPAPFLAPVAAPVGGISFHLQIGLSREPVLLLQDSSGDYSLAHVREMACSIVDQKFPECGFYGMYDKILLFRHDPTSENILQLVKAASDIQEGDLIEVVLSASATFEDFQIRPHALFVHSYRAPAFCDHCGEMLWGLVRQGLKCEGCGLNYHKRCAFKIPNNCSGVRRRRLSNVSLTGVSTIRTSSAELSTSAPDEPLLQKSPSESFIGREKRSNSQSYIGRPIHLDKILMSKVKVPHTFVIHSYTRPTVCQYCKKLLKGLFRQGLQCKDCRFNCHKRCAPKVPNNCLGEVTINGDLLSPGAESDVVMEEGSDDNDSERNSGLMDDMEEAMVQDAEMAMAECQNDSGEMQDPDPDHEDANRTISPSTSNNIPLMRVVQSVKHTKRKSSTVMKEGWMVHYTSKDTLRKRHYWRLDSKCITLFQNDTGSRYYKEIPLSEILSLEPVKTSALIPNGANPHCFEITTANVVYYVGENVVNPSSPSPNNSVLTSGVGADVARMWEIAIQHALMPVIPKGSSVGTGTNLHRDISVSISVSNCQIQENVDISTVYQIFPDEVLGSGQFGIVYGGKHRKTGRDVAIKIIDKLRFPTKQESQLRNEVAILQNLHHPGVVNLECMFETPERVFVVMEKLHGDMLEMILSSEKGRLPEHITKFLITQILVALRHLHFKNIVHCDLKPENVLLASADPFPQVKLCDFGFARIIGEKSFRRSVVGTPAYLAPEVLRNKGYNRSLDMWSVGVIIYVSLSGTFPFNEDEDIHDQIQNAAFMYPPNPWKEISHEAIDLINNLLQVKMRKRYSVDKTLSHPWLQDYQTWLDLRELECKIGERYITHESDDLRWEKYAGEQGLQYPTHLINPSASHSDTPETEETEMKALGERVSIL
Excerpt: as §1

[1] = target: RSK1(Kin.Dom.2-C-terminal) (Homo sapiens, UniProt Q15418); conditions: compound concentration 100 nM; Entrez RPS6KA1; read-out: Percent Control
Excerpt: as §1

[2] = target: RPS6KA4(Kin.Dom.2-C-terminal) (Homo sapiens, UniProt O75676); conditions: compound concentration 100 nM; Entrez RPS6KA4; read-out: Percent Control
Excerpt: as §1

TAOK2 = TAOK2 (Homo sapiens, UniProt Q9UL54); conditions: 1000 nM, read-out: Percent Control
Excerpt: as §1

FGFR4 = FGFR4 (Homo sapiens, UniProt P22455); conditions: 1000 nM, read-out: Percent Control
Excerpt: as §1

LTK = LTK (Homo sapiens, UniProt P29376); conditions: 1000 nM, read-out: Percent Control
Excerpt: as §1

TIE2 = TIE2 (Homo sapiens, UniProt Q02763); conditions: compound concentration 100 nM; Entrez TEK; read-out: Percent Control
Sequence of TIE2 (Q02763 23-1124): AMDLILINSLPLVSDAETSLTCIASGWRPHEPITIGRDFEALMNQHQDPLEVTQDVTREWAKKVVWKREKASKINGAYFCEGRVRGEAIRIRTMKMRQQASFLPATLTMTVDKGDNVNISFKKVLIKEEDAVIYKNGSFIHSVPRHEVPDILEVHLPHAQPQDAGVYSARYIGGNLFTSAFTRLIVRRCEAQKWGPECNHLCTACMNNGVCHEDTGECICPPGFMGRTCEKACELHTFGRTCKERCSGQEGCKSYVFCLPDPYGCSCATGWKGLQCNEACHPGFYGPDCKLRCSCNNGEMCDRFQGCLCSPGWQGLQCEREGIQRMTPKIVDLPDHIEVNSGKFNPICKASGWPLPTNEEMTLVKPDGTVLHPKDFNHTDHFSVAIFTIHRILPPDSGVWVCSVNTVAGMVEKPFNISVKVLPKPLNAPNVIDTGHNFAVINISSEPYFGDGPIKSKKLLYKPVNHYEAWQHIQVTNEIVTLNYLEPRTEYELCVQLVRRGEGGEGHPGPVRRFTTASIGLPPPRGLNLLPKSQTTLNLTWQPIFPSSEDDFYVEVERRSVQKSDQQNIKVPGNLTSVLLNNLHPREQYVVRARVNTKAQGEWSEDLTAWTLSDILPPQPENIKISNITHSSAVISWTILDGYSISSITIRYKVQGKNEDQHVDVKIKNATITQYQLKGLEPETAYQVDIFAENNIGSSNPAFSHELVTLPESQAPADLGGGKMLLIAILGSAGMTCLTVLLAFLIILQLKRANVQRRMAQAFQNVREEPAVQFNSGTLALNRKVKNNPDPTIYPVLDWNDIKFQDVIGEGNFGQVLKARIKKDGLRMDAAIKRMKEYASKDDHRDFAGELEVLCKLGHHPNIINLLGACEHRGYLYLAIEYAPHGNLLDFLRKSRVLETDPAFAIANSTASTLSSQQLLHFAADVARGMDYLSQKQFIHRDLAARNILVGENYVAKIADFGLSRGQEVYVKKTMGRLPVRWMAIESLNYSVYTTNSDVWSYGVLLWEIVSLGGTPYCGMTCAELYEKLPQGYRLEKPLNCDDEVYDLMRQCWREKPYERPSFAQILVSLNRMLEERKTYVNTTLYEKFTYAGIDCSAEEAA
Excerpt: as §1

PIK3C2B = PIK3C2B (Homo sapiens, UniProt O00750); conditions: compound concentration 100 nM; Entrez PIK3C2B; read-out: Percent Control
Excerpt: as §1

GSK3A = GSK3A (Homo sapiens, UniProt P49840); conditions: 1000 nM, read-out: Percent Control
Excerpt: as §1

PDGFRB = PDGFRB (Homo sapiens, UniProt P09619); conditions: 1000 nM, read-out: Percent Control
Excerpt: as §1

Sequence of MYLK2 (Q9H1R3 whole entry): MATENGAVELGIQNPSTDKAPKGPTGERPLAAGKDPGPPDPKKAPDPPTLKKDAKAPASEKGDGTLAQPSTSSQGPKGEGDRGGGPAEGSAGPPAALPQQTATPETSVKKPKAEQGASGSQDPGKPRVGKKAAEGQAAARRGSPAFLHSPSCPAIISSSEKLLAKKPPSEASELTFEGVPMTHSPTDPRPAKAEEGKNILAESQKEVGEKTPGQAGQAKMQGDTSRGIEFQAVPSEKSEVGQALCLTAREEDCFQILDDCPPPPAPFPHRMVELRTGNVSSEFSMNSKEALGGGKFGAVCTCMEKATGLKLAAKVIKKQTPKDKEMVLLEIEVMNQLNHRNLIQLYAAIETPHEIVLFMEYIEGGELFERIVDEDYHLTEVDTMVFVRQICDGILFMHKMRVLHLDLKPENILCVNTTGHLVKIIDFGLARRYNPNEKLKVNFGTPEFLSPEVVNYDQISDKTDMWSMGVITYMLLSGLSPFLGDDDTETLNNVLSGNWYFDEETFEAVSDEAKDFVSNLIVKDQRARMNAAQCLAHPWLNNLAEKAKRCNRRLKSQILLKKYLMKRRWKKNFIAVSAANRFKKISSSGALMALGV

Question: For `CN1C(=O)[C@@H](N2CCc3c(nn(Cc4ccccc4)c3C(N)=O)C2=O)COc2cc(Cl)ccc21` [Compound 10, (S)-2-benzyl-6-(8-chloro-5-methyl-4-oxo-2,3,4,5-tetrahydrobenzo[b][1,4]oxazepin-3-yl)-7-oxo-4,5,6,7-tetrahydro-2H-pyrazolo[3,4-c]pyridine-3-carboxamide], which remaining binding at 1 µM (SGK3) is on record?
Answer: Its remaining binding at 1 µM is 90%.

Question: What about the remaining binding at 1 µM (MYLK2) of the same compound?
Answer: Its remaining binding at 1 µM is 84%.

Question: And the remaining binding at 1 µM (MLK2)?
Answer: The remaining binding at 1 µM was 94%.

Question: What about the remaining binding at 1 µM (PHKG1) of the same compound?
Answer: The remaining binding at 1 µM was 93%.

Question: What about the remaining binding at 1 µM (p38-beta) of the same compound?
Answer: The remaining binding at 1 µM was 97%.

Question: And the remaining binding at 1 µM (PKNB(M.tuberculosis))?
Answer: Its remaining binding at 1 µM is 83%.

Question: What about the remaining binding at 1 µM (CDKL2; 1000 nM) of the same compound?
Answer: Its remaining binding at 1 µM is 100%.

Question: And the remaining binding at 0.1 µM (CDKL2; compound concentration 100 nM, Entrez CDKL2)?
Answer: Its remaining binding at 0.1 µM is 100%.

Question: And the remaining binding at 1 µM (HASPIN)?
Answer: Its remaining binding at 1 µM is 96%.

Question: What about the remaining binding at 1 µM (FRK) of the same compound?
Answer: The remaining binding at 1 µM was 81%.

Question: And the remaining binding at 1 µM (ACVR1B)?
Answer: Its remaining binding at 1 µM is 86%.

Question: And the remaining binding at 0.1 µM (MLK1)?
Answer: Its remaining binding at 0.1 µM is 89%.

Question: What about the remaining binding at 1 µM (DRAK2) of the same compound?
Answer: Its remaining binding at 1 µM is 82%.

Question: And the remaining binding at 0.1 µM (SRPK3)?
Answer: The remaining binding at 0.1 µM was 100%.

Question: What about the remaining binding at 1 µM (PRKD2) of the same compound?
Answer: The remaining binding at 1 µM was 96%.

Question: What about the remaining binding at 1 µM (STK36) of the same compound?
Answer: Its remaining binding at 1 µM is 80%.

Question: And the remaining binding at 1 µM (DAPK1)?
Answer: Its remaining binding at 1 µM is 96%.

Question: What about the remaining binding at 1 µM (PAK7) of the same compound?
Answer: The remaining binding at 1 µM was 91%.

Question: What about the remaining binding at 1 µM (PIK3C2G) of the same compound?
Answer: The remaining binding at 1 µM was 84%.

Question: And the remaining binding at 1 µM (TTK)?
Answer: Its remaining binding at 1 µM is 93%.

Question: What about the remaining binding at 0.1 µM (VRK2) of the same compound?
Answer: The remaining binding at 0.1 µM was 77%.

Question: And the remaining binding at 1 µM (KIT)?
Answer: The remaining binding at 1 µM was 89%.

Question: What about the remaining binding at 1 µM (ITK) of the same compound?
Answer: The remaining binding at 1 µM was 89%.

Question: What about the remaining binding at 1 µM (MEK3) of the same compound?
Answer: The remaining binding at 1 µM was 97%.

Question: What about the remaining binding at 1 µM (AURKA) of the same compound?
Answer: The remaining binding at 1 µM was 72%.

Question: And the remaining binding at 1 µM (CASK; 1000 nM)?
Answer: Its remaining binding at 1 µM is 100%.

Question: What about the remaining binding at 0.1 µM (CASK; compound concentration 100 nM, Entrez CASK) of the same compound?
Answer: Its remaining binding at 0.1 µM is 80%.

Question: And the remaining binding at 1 µM (BMX; 1000 nM)?
Answer: Its remaining binding at 1 µM is 100%.

Question: And the remaining binding at 0.1 µM (BMX; compound concentration 100 nM, Entrez BMX)?
Answer: The remaining binding at 0.1 µM was 100%.

Question: And the “Percent Control” value (FLT3(ITD))?
Answer: The value was 77%.

Question: What about the remaining binding at 1 µM (PRKD1) of the same compound?
Answer: Its remaining binding at 1 µM is 97%.

Question: And the remaining binding at 0.1 µM [1]?
Answer: Its remaining binding at 0.1 µM is 97%.

Question: And the remaining binding at 0.1 µM [2]?
Answer: Its remaining binding at 0.1 µM is 100%.

Question: What about the remaining binding at 1 µM (TAOK2) of the same compound?
Answer: The remaining binding at 1 µM was 90%.

Question: And the remaining binding at 1 µM (FGFR4)?
Answer: The remaining binding at 1 µM was 84%.

Question: What about the remaining binding at 1 µM (LTK) of the same compound?
Answer: Its remaining binding at 1 µM is 86%.

Question: What about the remaining binding at 0.1 µM (TIE2) of the same compound?
Answer: The remaining binding at 0.1 µM was 95%.

Question: And the remaining binding at 0.1 µM (PIK3C2B)?
Answer: Its remaining binding at 0.1 µM is 86%.

Question: What about the remaining binding at 1 µM (GSK3A) of the same compound?
Answer: The remaining binding at 1 µM was 98%.

Question: And the remaining binding at 1 µM (PDGFRB)?
Answer: Its remaining binding at 1 µM is 87%.

— PMC12090182, “Repurposing of the RIPK1-Selective Benzo[1,4]oxazepin-4-one Scaffold for the Development of a Type III LIMK1/2 Inhibitor” (ACS Chemical Biology, 2025)
